We go through nine compounds from ChEMBL document CHEMBL1697781, “Assessment of the health effects of chemicals in humans: II. Construction of an adverse effects database for QSAR modeling” (Curr Drug Discov Technol, 2004).

What all share (conditions): human
In data set [1] the test system is Hepatotoxicity. Briefly: FDA HLAED, liver enzyme composite activity.
Data set [2] relates to Hepatotoxicity. Briefly: FDA HLAED, alkaline phosphatase increase.
Data set [3] concerns Hepatotoxicity. The experiment in a line: FDA HLAED, serum glutamic oxaloacetic transaminase (SGOT) increase.
The test system of data set [4] is Hepatotoxicity. The experiment in a line: FDA HLAED, serum glutamic pyruvic transaminase (SGPT) increase.
Data set [5] relates to Hepatotoxicity. Briefly: FDA HLAED, lactate dehydrogenase (LDH) increase.
Data set [6] deals with Hepatotoxicity. Briefly: FDA HLAED, gamma-glutamyl transferase (GGT) increase.
Wherever GGT Increase - Index Value is given: reference of the scale not given here.
Wherever LDH Increase - Index Value is given: reference of the scale not given here.

With `Cc1c(OCC(F)(F)F)ccnc1C[S+]([O-])c1nc2ccccc2[nH]1` (configuration not stated) [LANSOPRAZOLE], in the data set with Hepatotoxicity [1], the “Composite Activity - Active” value worked out at 0, the “Composite Activity - Marginal” value is listed as 0 and the “Composite Activity - Score” value is recorded as “Inactive”. Moreover, in the data set with Hepatotoxicity [2], the “Alkaline Phosphatase Increase - Activity Score” value is on record as “Inactive”, the “Alkaline Phosphatase Increase - Index Value” is given as 0.5 and the “Alkaline Phosphatase Increase - Number of Reports” value is recorded as less than 4. Also, in the data set with Hepatotoxicity [3], the “SGOT Increase - Activity Score” value is “Inactive”, the “SGOT Increase - Index Value” stood at 0.9 and the “SGOT Increase - Number of Reports” value is on record as “>= 4”. In the data set on Hepatotoxicity [4], the “SGPT Increase - Activity Score” value is recorded as “Inactive”, the “SGPT Increase - Index Value” is on record as 1.2 and the “SGPT Increase - Number of Reports” value is reported as “>= 4”. Also, in the data set with Hepatotoxicity [5], the “LDH Increase - Activity Score” value is recorded as “Inactive”, the “LDH Increase - Index Value” was determined as 0.5 and the “LDH Increase - Number of Reports” value is on record as less than 4. In the data set on Hepatotoxicity [6], the “GGT Increase - Activity Score” value is “Inactive”, the “GGT Increase - Index Value” is 1.1 and the “GGT Increase - Number of Reports” value is recorded as “>= 4”.

With `Clc1ccc2nsnc2c1NC1=NCCN1` [TIZANIDINE], in the data set with Hepatotoxicity [1] (Liver), the “Composite Activity - Active” value turned out to be 1, the “Composite Activity - Marginal” value amounted to 0 and the “Composite Activity - Score” value is given as “Inactive”. For the same compound, in the data set on Hepatotoxicity [2], the “Alkaline Phosphatase Increase - Activity Score” value is on record as “Inactive”, the “Alkaline Phosphatase Increase - Index Value” was determined as 8.3 and the “Alkaline Phosphatase Increase - Number of Reports” value is recorded as less than 4. In the data set with Hepatotoxicity [3], the “SGOT Increase - Activity Score” value was “Inactive”, the “SGOT Increase - Index Value” amounted to 16.5 and the “SGOT Increase - Number of Reports” value is listed as less than 4. In the data set on Hepatotoxicity [4], the “SGPT Increase - Activity Score” value is on record as “Active”, the “SGPT Increase - Index Value” is 24.8 and the “SGPT Increase - Number of Reports” value was less than 4. For the same compound, in the data set on Hepatotoxicity [5], the “LDH Increase - Activity Score” value is “Inactive”, the “LDH Increase - Index Value” is given as 8.3 and the “LDH Increase - Number of Reports” value was less than 4. Also, in the data set with Hepatotoxicity [6], the “GGT Increase - Activity Score” value is listed as “Inactive”, the “GGT Increase - Index Value” is listed as 8.3 and the “GGT Increase - Number of Reports” value is reported as less than 4.

Regarding `CCN[C@@H]1C[C@H](N)[C@@H](O[C@H]2OC(CN)=CC[C@H]2N)[C@H](O)[C@H]1O[C@H]1OC[C@](C)(O)[C@H](NC)[C@H]1O` [NETILMICIN], in the data set with Hepatotoxicity [1], the “Composite Activity - Active” value was 0, the “Composite Activity - Marginal” value came to 0 and the “Composite Activity - Score” value is reported as “Inactive”. Further, in the data set on Hepatotoxicity [2], the “Alkaline Phosphatase Increase - Activity Score” value is recorded as “Inactive”, the “Alkaline Phosphatase Increase - Index Value” worked out at 0 and the “Alkaline Phosphatase Increase - Number of Reports” value is less than 4. In the data set on Hepatotoxicity [3], the “SGOT Increase - Activity Score” value is given as “Inactive”, the “SGOT Increase - Index Value” came out at 0 and the “SGOT Increase - Number of Reports” value was less than 4. Further, in the data set with Hepatotoxicity [4], the “SGPT Increase - Activity Score” value was “Inactive”, the “SGPT Increase - Index Value” is listed as 0 and the “SGPT Increase - Number of Reports” value is given as less than 4. In addition, in the data set with Hepatotoxicity [5], the “LDH Increase - Activity Score” value was “Inactive”, the “LDH Increase - Index Value” is reported as 0 and the “LDH Increase - Number of Reports” value was less than 4. In the data set on Hepatotoxicity [6], the “GGT Increase - Activity Score” value is reported as “Inactive”, the “GGT Increase - Index Value” was determined as 0 and the “GGT Increase - Number of Reports” value is reported as less than 4.

`N=C(N)NC(=O)Cc1c(Cl)cccc1Cl` [GUANFACINE]: in the data set on Hepatotoxicity [1], the “Composite Activity - Active” value stood at 0, the “Composite Activity - Marginal” value is listed as 0 and the “Composite Activity - Score” value is “Inactive”. Further, in the data set on Hepatotoxicity [2], the “Alkaline Phosphatase Increase - Activity Score” value is recorded as “Inactive”, the “Alkaline Phosphatase Increase - Index Value” was 1 and the “Alkaline Phosphatase Increase - Number of Reports” value is given as less than 4. In the data set with Hepatotoxicity [3], the “SGOT Increase - Activity Score” value is reported as “Inactive”, the “SGOT Increase - Index Value” came out at 1.3 and the “SGOT Increase - Number of Reports” value was “>= 4”. Further, in the data set on Hepatotoxicity [4], the “SGPT Increase - Activity Score” value is “Inactive”, the “SGPT Increase - Index Value” amounted to 0.3 and the “SGPT Increase - Number of Reports” value was less than 4. In addition, in the data set with Hepatotoxicity [5], the “LDH Increase - Activity Score” value is on record as “Inactive”, the “LDH Increase - Index Value” turned out to be 0.6 and the “LDH Increase - Number of Reports” value is on record as less than 4. In the data set on Hepatotoxicity [6], the “GGT Increase - Activity Score” value is reported as “Inactive”, the “GGT Increase - Index Value” is 0 and the “GGT Increase - Number of Reports” value was less than 4.

With `CN(C)CC/C=C1/c2ccccc2COc2ccc(CC(=O)O)cc21` [OLOPATADINE], in the data set with Hepatotoxicity [1], the “Composite Activity - Active” value turned out to be 0, the “Composite Activity - Marginal” value came out at 0 and the “Composite Activity - Score” value is “Inactive”. Moreover, in the data set with Hepatotoxicity [2], the “Alkaline Phosphatase Increase - Activity Score” value was “Inactive”, the “Alkaline Phosphatase Increase - Index Value” came out at 0 and the “Alkaline Phosphatase Increase - Number of Reports” value was less than 4. For the same compound, in the data set with Hepatotoxicity [3], the “SGOT Increase - Activity Score” value is “Inactive”, the “SGOT Increase - Index Value” is given as 0 and the “SGOT Increase - Number of Reports” value is less than 4. Also, in the data set with Hepatotoxicity [4], the “SGPT Increase - Activity Score” value is on record as “Inactive”, the “SGPT Increase - Index Value” worked out at 0 and the “SGPT Increase - Number of Reports” value is reported as less than 4. In addition, in the data set on Hepatotoxicity [5], the “LDH Increase - Activity Score” value was “Inactive”, the “LDH Increase - Index Value” is reported as 0 and the “LDH Increase - Number of Reports” value is less than 4. In addition, in the data set on Hepatotoxicity [6], the “GGT Increase - Activity Score” value is reported as “Inactive”, the “GGT Increase - Index Value” is listed as 0 and the “GGT Increase - Number of Reports” value is on record as less than 4.

For the compound `C[N+](C)(C)CCO.Cn1c(=O)c2[n-]cnc2n(C)c1=O` [OXTRIPHYLLINE], in the data set on Hepatotoxicity [1], the “Composite Activity - Active” value was determined as 0, the “Composite Activity - Marginal” value is recorded as 0 and the “Composite Activity - Score” value was “Inactive”. Moreover, in the data set with Hepatotoxicity [2], the “Alkaline Phosphatase Increase - Activity Score” value is “Inactive”, the “Alkaline Phosphatase Increase - Index Value” stood at 0 and the “Alkaline Phosphatase Increase - Number of Reports” value is reported as less than 4. In the data set with Hepatotoxicity [3], the “SGOT Increase - Activity Score” value was “Inactive”, the “SGOT Increase - Index Value” stood at 0 and the “SGOT Increase - Number of Reports” value was less than 4. In addition, in the data set with Hepatotoxicity [4], the “SGPT Increase - Activity Score” value was “Inactive”, the “SGPT Increase - Index Value” came out at 0 and the “SGPT Increase - Number of Reports” value was less than 4. In the data set on Hepatotoxicity [5], the “LDH Increase - Activity Score” value was “Inactive”, the “LDH Increase - Index Value” is 0 and the “LDH Increase - Number of Reports” value is recorded as less than 4. Also, in the data set with Hepatotoxicity [6], the “GGT Increase - Activity Score” value was “Inactive”, the “GGT Increase - Index Value” stood at 0 and the “GGT Increase - Number of Reports” value is given as less than 4.

In the case of `CC1=C(CC(=O)O)c2cc(F)ccc2/C1=C\c1ccc([S+](C)[O-])cc1` (configuration not stated), in the data set with Hepatotoxicity [1], the “Composite Activity - Active” value is 0, the “Composite Activity - Marginal” value was 0 and the “Composite Activity - Score” value is reported as “Inactive”. In the data set on Hepatotoxicity [2], the “Alkaline Phosphatase Increase - Activity Score” value is on record as “Inactive”, the “Alkaline Phosphatase Increase - Index Value” stood at 0 and the “Alkaline Phosphatase Increase - Number of Reports” value was less than 4. In addition, in the data set on Hepatotoxicity [3], the “SGOT Increase - Activity Score” value is recorded as “Inactive”, the “SGOT Increase - Index Value” is 0 and the “SGOT Increase - Number of Reports” value was less than 4. Besides, in the data set with Hepatotoxicity [4], the “SGPT Increase - Activity Score” value is “Inactive”, the “SGPT Increase - Index Value” was determined as 0 and the “SGPT Increase - Number of Reports” value is given as less than 4. In the data set on Hepatotoxicity [5], the “LDH Increase - Activity Score” value is on record as “Inactive”, the “LDH Increase - Index Value” turned out to be 0 and the “LDH Increase - Number of Reports” value is given as less than 4. In addition, in the data set with Hepatotoxicity [6], the “GGT Increase - Activity Score” value is given as “Inactive”, the “GGT Increase - Index Value” came out at 0 and the “GGT Increase - Number of Reports” value is less than 4.

`O=C1CC2(CCCC2)CC(=O)N1CCCCN1CCN(c2ncccn2)CC1` [BUSPIRONE]: in the data set with Hepatotoxicity [1], the “Composite Activity - Active” value is given as 0, the “Composite Activity - Marginal” value is 1 and the “Composite Activity - Score” value is given as “Inactive”. Moreover, in the data set with Hepatotoxicity [2], the “Alkaline Phosphatase Increase - Activity Score” value was “Inactive”, the “Alkaline Phosphatase Increase - Index Value” worked out at 0.9 and the “Alkaline Phosphatase Increase - Number of Reports” value was “>= 4”. In the data set with Hepatotoxicity [3], the “SGOT Increase - Activity Score” value was “Inactive”, the “SGOT Increase - Index Value” came to 2.4 and the “SGOT Increase - Number of Reports” value was “>= 4”. Moreover, in the data set with Hepatotoxicity [4], the “SGPT Increase - Activity Score” value is on record as “Marginally Active”, the “SGPT Increase - Index Value” is given as 3.1 and the “SGPT Increase - Number of Reports” value is reported as “>= 4”. In addition, in the data set on Hepatotoxicity [5], the “LDH Increase - Activity Score” value is “Inactive”, the “LDH Increase - Index Value” turned out to be 0.4 and the “LDH Increase - Number of Reports” value was less than 4. Also, in the data set on Hepatotoxicity [6], the “GGT Increase - Activity Score” value is on record as “Inactive”, the “GGT Increase - Index Value” was 0.6 and the “GGT Increase - Number of Reports” value is on record as less than 4.

As to `C[C@H]1C[C@H]2[C@@H]3CCC4=CC(=O)C=C[C@]4(C)[C@@]3(Cl)[C@@H](O)C[C@]2(C)[C@@]1(O)C(=O)CO` [BECLOMETHASONE], in the data set with Hepatotoxicity [1], the “Composite Activity - Active” value turned out to be 0, the “Composite Activity - Marginal” value was 0 and the “Composite Activity - Score” value is recorded as “Inactive”. Further, in the data set on Hepatotoxicity [2], the “Alkaline Phosphatase Increase - Activity Score” value is listed as “Inactive”, the “Alkaline Phosphatase Increase - Index Value” is reported as 0 and the “Alkaline Phosphatase Increase - Number of Reports” value is less than 4. In the data set on Hepatotoxicity [3], the “SGOT Increase - Activity Score” value was “Inactive”, the “SGOT Increase - Index Value” amounted to 0 and the “SGOT Increase - Number of Reports” value is listed as less than 4. Also, in the data set with Hepatotoxicity [4], the “SGPT Increase - Activity Score” value is given as “Inactive”, the “SGPT Increase - Index Value” came out at 0 and the “SGPT Increase - Number of Reports” value is listed as less than 4. In addition, in the data set on Hepatotoxicity [5], the “LDH Increase - Activity Score” value is “Inactive”, the “LDH Increase - Index Value” was 0 and the “LDH Increase - Number of Reports” value was less than 4. For the same compound, in the data set on Hepatotoxicity [6], the “GGT Increase - Activity Score” value is given as “Inactive”, the “GGT Increase - Index Value” stood at 0 and the “GGT Increase - Number of Reports” value is recorded as less than 4.
